ChEMBL document CHEMBL5113400, “Design, synthesis, and biological evaluation of trizole-based heteroaromatic derivatives as Bcr-Abl kinase inhibitors” (Eur J Med Chem, 2022)
Active and inactive are the calls of the source. The calls are words filed in the database; no cut-off is given here.

Legend:
K562 [1] = assay: Induction of apoptosis in human K562 cells assessed as early apoptotic cells at 5 uM incubated for 48 hrs by Annexin V-FITC/PI staining based flow cytometry analysis (Rvb= 4.35%); format: functional
[2] = biological target: Tyrosine-protein kinase receptor UFO (Homo sapiens) (UniProt P30530); assay: Inhibition of recombinant human AXL at 10 uM for 10 mins followed by substrate addition in presence of ATP and measured after 100 mins by ADP-Glo kinase assay; settings: time 110.0 min
[3] = biological target: Bcr/Abl fusion protein (Homo sapiens) (UniProt P00519+P11274); assay: Inhibition of Bcr-Abl phosphorylation at Tyr245 residue in human K562 cells expressing wild type Bcr-Abl at 0.1 to 15 uM measured after 48 hrs by Western blot analysis; format: cell-based; settings: dose 0.1-15 µM, DDE = dose-dependent effect
[4] = biological target: Dual specificity protein kinase CLK1 (Homo sapiens) (UniProt P49759); assay: Inhibition of recombinant human CLK1 at 10 uM for 10 mins followed by substrate addition in presence of ATP and measured after 60 mins by HTRF assay; settings: time 70.0 min
K562 [5] = assay: Induction of cell cycle arrest in human K562 cells assessed as reduction in G0/G1 phase at 1 to 10 uM incubated for 48 hrs by PI staining based flow cytometry; format: functional; settings: dose 1-10 µM
K562 [6] = assay: Induction of apoptosis in human K562 cells assessed as necrotic cells at 5 uM incubated for 48 hrs by Annexin V-FITC/PI staining based flow cytometry analysis (Rvb= 0.09%); format: functional
BaF3 [7] = assay: Antiproliferative activity against mouse BaF3 cells expressing wild type Bcr-Abl assessed as inhibition of cell growth incubated for 72 hrs by CellTiter-Glo luminescent assay; format: functional, cell-based; settings: BaF3, 72 h
Bcr/Abl fusion protein = Bcr/Abl fusion protein (Homo sapiens, UniProt P00519); assay: Inhibition of wild type Bcr-Abl (unknown origin) incubated for 1 hr in presence of ATP by ADP-Glo kinase assay; format: protein assay
K562/Adr = assay: Antiproliferative activity against human Adriamycin-resistant K562/Adr cells assessed as inhibition of cell growth incubated for 48 hrs by MTT assay; format: functional, cell-based
[8] = biological target: BDNF/NT-3 growth factors receptor (Homo sapiens) (UniProt Q16620); assay: Inhibition of recombinant human TRKB at 10 uM for 10 mins followed by substrate addition in presence of ATP and measured after 60 mins by HTRF assay; settings: time 70.0 min
BaF3 [9] = assay: Antiproliferative activity against mouse BaF3 cells assessed as inhibition of cell growth incubated for 72 hrs by CellTiter-Glo luminescent assay; format: functional, cell-based; settings: BaF3, 72 h
[10] = biological target: Dual specificity protein kinase CLK1 (Homo sapiens) (UniProt P49759); assay: Inhibition of recombinant human CLK1 at 10 uM for 10 mins followed by substrate addition in presence of ATP and measured after 100 mins by ADP-Glo kinase assay; settings: time 110.0 min
[11] = biological target: T1, Signal transducer and activator of transcription 5A (Homo sapiens) (UniProt P42229); assay: Inhibition of STAT5 phosphorylation at Tyr694 residue in human K562 cells expressing wild type Bcr-Abl at 0.1 to 15 uM measured after 48 hrs by Western blot analysis; format: cell-based; settings: dose 0.1-15 µM, DDE = dose-dependent effect
T1 sequence (whole entry): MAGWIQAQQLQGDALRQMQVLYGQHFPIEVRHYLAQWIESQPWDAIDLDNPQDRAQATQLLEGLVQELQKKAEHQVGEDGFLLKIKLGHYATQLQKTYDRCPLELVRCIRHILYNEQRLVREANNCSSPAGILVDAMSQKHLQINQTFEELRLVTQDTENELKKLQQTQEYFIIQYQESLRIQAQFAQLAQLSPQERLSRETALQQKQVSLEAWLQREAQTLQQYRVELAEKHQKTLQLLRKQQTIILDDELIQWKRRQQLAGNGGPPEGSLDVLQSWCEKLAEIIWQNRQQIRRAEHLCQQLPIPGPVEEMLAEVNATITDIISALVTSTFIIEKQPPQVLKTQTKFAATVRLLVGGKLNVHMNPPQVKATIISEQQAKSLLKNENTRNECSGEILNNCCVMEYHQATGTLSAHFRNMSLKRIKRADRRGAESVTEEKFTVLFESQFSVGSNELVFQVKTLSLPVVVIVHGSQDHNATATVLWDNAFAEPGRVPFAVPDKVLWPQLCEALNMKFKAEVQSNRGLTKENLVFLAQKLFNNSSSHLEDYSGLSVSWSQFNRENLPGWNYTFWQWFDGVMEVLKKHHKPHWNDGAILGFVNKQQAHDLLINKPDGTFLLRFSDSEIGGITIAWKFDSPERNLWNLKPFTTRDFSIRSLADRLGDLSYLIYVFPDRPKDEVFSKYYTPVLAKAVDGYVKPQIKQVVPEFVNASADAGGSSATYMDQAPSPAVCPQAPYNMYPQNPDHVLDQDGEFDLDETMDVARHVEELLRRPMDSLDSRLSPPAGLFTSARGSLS

K562 [12] = assay: Induction of apoptosis in human K562 cells assessed as late apoptotic cells at 10 uM incubated for 48 hrs by Annexin V-FITC/PI staining based flow cytometry analysis (Rvb= 14.66%); format: functional
K562 [13] = assay: Induction of apoptosis in human K562 cells assessed as necrotic cells at 1 uM incubated for 48 hrs by Annexin V-FITC/PI staining based flow cytometry analysis (Rvb= 0.09%); format: functional
[14] = biological target: T2, Tyrosine-protein kinase ITK/TSK (Homo sapiens) (UniProt Q08881); assay: Inhibition of recombinant human ITK at 10 uM for 10 mins followed by substrate addition in presence of ATP and measured after 60 mins by HTRF assay; settings: time 70.0 min
T2 sequence (whole entry): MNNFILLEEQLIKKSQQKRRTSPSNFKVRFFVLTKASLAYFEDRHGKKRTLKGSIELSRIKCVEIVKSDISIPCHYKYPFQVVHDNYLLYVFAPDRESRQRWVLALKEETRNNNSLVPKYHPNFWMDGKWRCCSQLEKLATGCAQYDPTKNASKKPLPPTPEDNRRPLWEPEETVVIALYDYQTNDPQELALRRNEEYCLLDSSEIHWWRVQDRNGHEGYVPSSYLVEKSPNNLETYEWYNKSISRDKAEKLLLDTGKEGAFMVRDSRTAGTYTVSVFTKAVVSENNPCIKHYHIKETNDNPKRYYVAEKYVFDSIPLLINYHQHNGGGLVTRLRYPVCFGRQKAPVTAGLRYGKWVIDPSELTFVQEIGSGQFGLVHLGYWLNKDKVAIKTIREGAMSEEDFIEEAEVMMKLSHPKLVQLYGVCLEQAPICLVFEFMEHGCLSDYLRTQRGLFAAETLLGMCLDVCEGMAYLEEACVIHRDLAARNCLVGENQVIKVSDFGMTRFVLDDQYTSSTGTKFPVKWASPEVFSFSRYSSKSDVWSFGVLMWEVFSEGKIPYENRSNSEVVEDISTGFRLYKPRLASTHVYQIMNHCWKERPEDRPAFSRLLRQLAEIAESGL

K562 [15] = assay: Induction of apoptosis in human K562 cells assessed as viable cells at 10 uM incubated for 48 hrs by Annexin V-FITC/PI staining based flow cytometry analysis (Rvb=80.89%); format: functional; settings: read-out: Activity
K562 [16] = assay: Induction of apoptosis in human K562 cells assessed as necrotic cells at 10 uM incubated for 48 hrs by Annexin V-FITC/PI staining based flow cytometry analysis (Rvb= 0.09%); format: functional

Sequence of Dual specificity protein kinase CLK1 (Homo sapiens) (P49759 whole entry, looked up): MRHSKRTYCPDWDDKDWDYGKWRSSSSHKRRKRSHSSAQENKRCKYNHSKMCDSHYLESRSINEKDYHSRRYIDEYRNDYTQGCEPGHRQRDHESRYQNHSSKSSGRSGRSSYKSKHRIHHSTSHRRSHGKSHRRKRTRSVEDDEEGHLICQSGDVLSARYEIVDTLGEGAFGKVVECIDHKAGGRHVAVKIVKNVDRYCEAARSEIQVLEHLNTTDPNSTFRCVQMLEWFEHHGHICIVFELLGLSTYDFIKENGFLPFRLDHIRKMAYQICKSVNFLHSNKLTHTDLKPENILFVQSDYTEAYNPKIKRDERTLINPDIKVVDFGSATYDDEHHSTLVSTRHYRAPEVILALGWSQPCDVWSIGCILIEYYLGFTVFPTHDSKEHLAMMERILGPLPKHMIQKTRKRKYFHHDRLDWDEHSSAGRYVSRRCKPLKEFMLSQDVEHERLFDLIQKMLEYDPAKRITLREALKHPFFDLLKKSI
Sequence of Tyrosine-protein kinase receptor UFO (Homo sapiens) (P30530 whole entry, the tested form may be a part): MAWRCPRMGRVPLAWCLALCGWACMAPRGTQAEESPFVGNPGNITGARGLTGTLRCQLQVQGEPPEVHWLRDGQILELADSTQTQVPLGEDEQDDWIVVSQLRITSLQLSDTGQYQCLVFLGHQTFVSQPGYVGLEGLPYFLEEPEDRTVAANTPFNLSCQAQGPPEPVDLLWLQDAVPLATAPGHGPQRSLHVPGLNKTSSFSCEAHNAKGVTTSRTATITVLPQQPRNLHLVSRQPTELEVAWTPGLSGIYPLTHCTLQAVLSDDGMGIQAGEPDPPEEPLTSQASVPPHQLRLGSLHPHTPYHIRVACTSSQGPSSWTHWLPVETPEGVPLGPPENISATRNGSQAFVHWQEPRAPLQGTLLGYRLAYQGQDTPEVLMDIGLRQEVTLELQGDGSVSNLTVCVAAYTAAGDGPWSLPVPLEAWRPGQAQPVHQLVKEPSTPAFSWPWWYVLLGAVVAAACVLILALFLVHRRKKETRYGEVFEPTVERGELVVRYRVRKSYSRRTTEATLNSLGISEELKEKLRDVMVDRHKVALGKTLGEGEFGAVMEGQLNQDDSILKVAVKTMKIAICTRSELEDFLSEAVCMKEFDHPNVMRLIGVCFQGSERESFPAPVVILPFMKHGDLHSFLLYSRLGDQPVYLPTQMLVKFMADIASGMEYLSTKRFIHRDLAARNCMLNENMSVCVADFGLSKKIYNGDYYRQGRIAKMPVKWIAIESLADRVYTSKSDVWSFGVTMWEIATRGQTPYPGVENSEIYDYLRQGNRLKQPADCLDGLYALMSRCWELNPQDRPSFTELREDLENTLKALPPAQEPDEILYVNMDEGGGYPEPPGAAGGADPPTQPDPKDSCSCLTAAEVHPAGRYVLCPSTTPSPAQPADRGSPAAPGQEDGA
Sequence of BDNF/NT-3 growth factors receptor (Homo sapiens) (Q16620 32-822 limits assumed): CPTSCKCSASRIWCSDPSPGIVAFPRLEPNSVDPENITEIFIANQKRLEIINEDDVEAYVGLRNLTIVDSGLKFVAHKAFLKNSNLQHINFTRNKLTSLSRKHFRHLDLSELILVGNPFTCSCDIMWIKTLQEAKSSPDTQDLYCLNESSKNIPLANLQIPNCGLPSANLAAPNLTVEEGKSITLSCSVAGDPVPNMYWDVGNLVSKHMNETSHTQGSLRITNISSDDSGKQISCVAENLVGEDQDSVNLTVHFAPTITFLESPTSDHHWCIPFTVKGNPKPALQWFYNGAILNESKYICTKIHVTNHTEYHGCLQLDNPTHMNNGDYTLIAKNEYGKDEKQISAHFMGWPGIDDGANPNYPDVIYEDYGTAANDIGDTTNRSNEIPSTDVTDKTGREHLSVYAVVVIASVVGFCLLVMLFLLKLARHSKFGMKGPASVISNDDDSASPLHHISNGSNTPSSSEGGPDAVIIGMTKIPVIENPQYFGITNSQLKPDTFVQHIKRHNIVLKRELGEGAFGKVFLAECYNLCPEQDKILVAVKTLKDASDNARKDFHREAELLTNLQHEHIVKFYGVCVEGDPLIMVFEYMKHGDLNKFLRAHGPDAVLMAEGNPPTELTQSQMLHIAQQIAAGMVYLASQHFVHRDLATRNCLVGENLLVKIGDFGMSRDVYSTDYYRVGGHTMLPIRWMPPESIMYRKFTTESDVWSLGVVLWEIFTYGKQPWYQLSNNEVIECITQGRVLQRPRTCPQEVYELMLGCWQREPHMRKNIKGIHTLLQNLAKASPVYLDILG
Sequence of Bcr/Abl fusion protein (P00519 whole entry, the tested form may be a part): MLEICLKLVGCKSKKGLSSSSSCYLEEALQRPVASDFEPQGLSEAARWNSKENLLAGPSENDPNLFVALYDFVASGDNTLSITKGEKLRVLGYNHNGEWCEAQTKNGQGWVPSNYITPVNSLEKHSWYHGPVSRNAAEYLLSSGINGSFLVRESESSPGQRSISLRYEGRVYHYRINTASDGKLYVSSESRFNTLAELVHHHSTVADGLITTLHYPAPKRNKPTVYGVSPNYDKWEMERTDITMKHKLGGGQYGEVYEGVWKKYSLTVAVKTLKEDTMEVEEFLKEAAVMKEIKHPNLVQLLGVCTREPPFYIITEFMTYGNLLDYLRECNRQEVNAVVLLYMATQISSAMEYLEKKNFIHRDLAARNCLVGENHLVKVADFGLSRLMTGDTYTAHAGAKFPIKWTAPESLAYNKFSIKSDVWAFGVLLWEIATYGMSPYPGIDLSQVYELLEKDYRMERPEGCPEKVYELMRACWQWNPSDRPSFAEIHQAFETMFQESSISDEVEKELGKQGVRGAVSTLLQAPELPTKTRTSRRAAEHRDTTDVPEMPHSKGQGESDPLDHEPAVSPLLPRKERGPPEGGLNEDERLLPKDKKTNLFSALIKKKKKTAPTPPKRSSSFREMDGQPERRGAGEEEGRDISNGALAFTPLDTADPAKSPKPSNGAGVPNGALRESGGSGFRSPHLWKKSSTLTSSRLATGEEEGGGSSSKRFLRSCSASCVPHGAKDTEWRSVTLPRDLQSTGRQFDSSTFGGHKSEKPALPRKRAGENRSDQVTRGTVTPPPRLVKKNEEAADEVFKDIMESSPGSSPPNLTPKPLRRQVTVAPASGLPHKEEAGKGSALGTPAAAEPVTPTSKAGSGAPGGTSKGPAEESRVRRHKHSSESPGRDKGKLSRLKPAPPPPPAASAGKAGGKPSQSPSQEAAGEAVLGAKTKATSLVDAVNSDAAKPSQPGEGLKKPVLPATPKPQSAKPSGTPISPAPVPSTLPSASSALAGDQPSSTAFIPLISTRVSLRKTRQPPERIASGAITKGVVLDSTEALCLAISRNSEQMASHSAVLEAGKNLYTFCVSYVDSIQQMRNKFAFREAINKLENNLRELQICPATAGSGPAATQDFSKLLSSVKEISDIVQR
Sequence of Bcr/Abl fusion protein (P11274 whole entry, further chain, the tested form may be a part): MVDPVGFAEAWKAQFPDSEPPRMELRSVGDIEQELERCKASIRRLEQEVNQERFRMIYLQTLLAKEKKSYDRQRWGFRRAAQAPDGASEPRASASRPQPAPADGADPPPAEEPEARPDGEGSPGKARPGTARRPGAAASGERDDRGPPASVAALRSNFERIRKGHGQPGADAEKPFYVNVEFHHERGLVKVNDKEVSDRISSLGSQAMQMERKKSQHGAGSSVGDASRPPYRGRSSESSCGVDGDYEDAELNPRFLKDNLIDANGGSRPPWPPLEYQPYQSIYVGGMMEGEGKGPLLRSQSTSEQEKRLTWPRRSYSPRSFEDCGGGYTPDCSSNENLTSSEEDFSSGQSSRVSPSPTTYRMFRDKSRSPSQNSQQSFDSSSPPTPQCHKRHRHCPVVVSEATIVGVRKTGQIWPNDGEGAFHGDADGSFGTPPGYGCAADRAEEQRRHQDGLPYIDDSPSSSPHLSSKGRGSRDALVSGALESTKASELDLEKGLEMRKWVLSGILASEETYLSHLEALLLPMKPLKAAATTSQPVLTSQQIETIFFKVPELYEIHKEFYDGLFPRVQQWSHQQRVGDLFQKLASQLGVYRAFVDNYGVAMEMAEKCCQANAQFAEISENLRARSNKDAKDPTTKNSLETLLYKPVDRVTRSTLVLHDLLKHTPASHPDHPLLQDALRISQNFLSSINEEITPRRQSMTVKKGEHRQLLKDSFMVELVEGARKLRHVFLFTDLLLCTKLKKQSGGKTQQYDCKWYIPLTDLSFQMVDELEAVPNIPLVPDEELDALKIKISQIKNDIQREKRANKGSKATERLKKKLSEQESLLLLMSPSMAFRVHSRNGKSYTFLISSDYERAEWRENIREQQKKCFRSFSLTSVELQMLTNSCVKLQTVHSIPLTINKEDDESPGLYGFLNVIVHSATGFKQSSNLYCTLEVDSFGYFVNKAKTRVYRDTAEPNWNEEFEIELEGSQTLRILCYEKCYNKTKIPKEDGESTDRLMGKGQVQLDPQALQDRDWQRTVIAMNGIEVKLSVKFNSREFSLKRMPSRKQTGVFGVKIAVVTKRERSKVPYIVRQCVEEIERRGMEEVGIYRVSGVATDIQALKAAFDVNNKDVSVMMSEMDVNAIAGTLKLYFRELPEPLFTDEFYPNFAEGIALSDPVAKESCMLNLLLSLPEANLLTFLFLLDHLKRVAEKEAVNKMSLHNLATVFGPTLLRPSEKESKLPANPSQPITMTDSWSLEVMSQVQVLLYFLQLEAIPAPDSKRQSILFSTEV
Sequence of Bcr/Abl fusion protein (Homo sapiens) (P00519 whole entry, looked up, the tested form may be a part): as the sequence (P00519 whole entry, the tested form may be a part) above
Sequence of Bcr/Abl fusion protein (Homo sapiens) (P11274 whole entry, looked up, the tested form may be a part): as the sequence (P11274 whole entry, further chain, the tested form may be a part) above

O=C(Nc1nc2ccc(-c3cn([C@@H]4CN[C@H](C(=O)Nc5ccc(Cl)cc5Cl)C4)nn3)nc2s1)C1CC1
Activity (K562 [1]): 4.85%
inhibition [2]: 56.4%
inhibition [3]: Dde
inhibition [4]: 44.2%
Activity (K562 [5]): Active
Activity (K562 [6]): 0.03%
IC50 (BaF3 [7]): 130 nM
IC50 (Bcr/Abl fusion protein): 0.6 nM
IC50 (K562/Adr): 2440 nM
inhibition [8]: 54.3%
IC50 (BaF3 [9]): > 20000 nM
inhibition [10]: 44.2%
inhibition [11]: Dde
Activity (K562 [12]): 43.12%
Activity (K562 [13]): 0.06%
inhibition [14]: 41.1%
viability at 10 µM (K562 [15]): 49.7%
Activity (K562 [16]): 0.01%
